In general, IC50 refers to the concentration needed to halve the response being measured.

Drawing on ChEMBL document CHEMBL5236646, “Design, synthesis, and biological evaluation of BRD4 degraders” (Bioorg Med Chem, 2023), this text covers IC50 and Activity for two molecules.

The test system of one experiment is MM1.S. The experiment can be described thus: Antiproliferative activity against human MM1.S cells assessed as inhibition of cell growth incubated for 72 hrs MTS assay. The format is functional, cell-based. For orientation: Formazan colour is commonly taken as a measure of viable cells.
A further experiment deals with MV4-11. Briefly: Antiproliferative activity against human […] cells assessed as inhibition of cell growth incubated for 72 hrs MTS assay. The format is functional, cell-based. The note with it: MV4-11, 72 h.
The target in experiment [1] is T1, Protein cereblon/Bromodomain-containing protein 4 (Homo sapiens) (UniProt O60885+Q96SW2). The experiment can be described thus: Protac activity at CRBN/BRD4 in human MM1.S cells assessed as induction of BRD4 protein degradation by measuring residual activity at 0.2 uM incubated for 3 hrs by Western blot analysis relative to control. In kind it is cell-based. (In general: Immunoblotting shows a protein as a band on a membrane.)
T1 sequence (Q96SW2 whole entry, looked up, other chains not shown): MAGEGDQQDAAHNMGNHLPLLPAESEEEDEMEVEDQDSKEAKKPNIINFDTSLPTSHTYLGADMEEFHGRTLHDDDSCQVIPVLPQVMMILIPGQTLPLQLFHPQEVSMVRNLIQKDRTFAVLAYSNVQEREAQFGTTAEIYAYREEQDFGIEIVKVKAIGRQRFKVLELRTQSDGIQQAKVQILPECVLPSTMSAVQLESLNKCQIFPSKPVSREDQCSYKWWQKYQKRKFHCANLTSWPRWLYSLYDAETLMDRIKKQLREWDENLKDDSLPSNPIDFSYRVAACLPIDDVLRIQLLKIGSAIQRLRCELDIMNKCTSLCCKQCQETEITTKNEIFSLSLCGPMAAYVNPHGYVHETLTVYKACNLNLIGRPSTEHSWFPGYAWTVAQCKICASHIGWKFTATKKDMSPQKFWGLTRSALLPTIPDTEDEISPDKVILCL

Experiment [2] deals with T1, Protein cereblon/Bromodomain-containing protein 4 (Homo sapiens). Briefly: Protac activity at CRBN/BRD4 in human MM1.S cells assessed as induction of BRD4 protein degradation by measuring residual activity at 0.6 uM incubated for 3 hrs by Western blot analysis relative to control. In kind it is cell-based.
Experiment [3] shares this target. The experiment can be described thus: Protac activity at CRBN/BRD4 in human MM1.S cells assessed as induction of BRD4 protein degradation by measuring residual activity at 1.8 uM incubated for 3 hrs by Western blot analysis relative to control. In kind it is cell-based.
The target is the same in experiment [4]. The experiment can be described thus: Protac activity at CRBN/BRD4 in human MV4-11 cells assessed as induction of BRD4 protein degradation by measuring residual activity at 0.04 uM incubated for 3 hrs by Western blot analysis relative to control. The format is cell-based.
Experiment [5] has the same target. The experiment can be described thus: Protac activity at CRBN/BRD4 in human MV4-11 cells assessed as induction of BRD4 protein degradation by measuring residual activity at 0.12 uM incubated for 3 hrs by Western blot analysis relative to control. The format is cell-based.
The target is the same in experiment [6]. Briefly: Protac activity at CRBN/BRD4 in human MV4-11 cells assessed as induction of BRD4 protein degradation by measuring residual activity at 0.36 uM incubated for 3 hrs by Western blot analysis relative to control. The format is cell-based.
For experiment [7] the target is unchanged. The experiment can be described thus: Protac activity at CRBN/BRD4 in human MM1.S cells assessed as induction of BRD4 protein degradation by measuring residual activity at 0.06 uM incubated for 3 hrs by Western blot analysis relative to control. In kind it is cell-based.
For experiment [8] the target is unchanged. The experiment can be described thus: Protac activity at CRBN/BRD4 in human MM1.S cells assessed as induction of BRD4 protein degradation by measuring residual activity at 0.18 uM incubated for 3 hrs by Western blot analysis relative to control. In kind it is cell-based.
The target is the same in experiment [9]. The experiment can be described thus: Protac activity at CRBN/BRD4 in human MM1.S cells assessed as induction of BRD4 protein degradation by measuring residual activity at 0.02 uM incubated for 3 hrs by Western blot analysis relative to control. In kind it is cell-based.
Experiment [10] has the same target. Briefly: Protac activity at CRBN/BRD4 in human MV4-11 cells assessed as induction of BRD4 protein degradation by measuring residual activity at 0.005 uM incubated for 3 hrs by Western blot analysis relative to control. The format is cell-based.
Experiment [11] shares this target. Briefly: Protac activity at CRBN/BRD4 in human MV4-11 cells assessed as induction of BRD4 protein degradation by measuring residual activity at 0.015 uM incubated for 3 hrs by Western blot analysis relative to control. In kind it is cell-based.
Experiment [12] has the same target. Briefly: Protac activity at CRBN/BRD4 in human MV4-11 cells assessed as induction of BRD4 protein degradation by measuring residual activity at 0.045 uM incubated for 3 hrs by Western blot analysis relative to control. The format is cell-based.

As for `Cc1sc2c(c1C)C(c1ccc(Cl)cc1)=N[C@@H](CC(=O)NCCCCNC(=O)c1ccc(CNc3cccc4c3C(=O)N(C3CCC(=O)NC3=O)C4=O)cc1)c1nnc(C)n1-2` (stereo partly specified), the IC50 came out at 602 nM in the experiment on MM1.S and 128 nM with MV4-11. In addition, the Activity in experiment [1] was determined as 144%; in experiment [2], 141%; in [3] it was 139%; in [4] it was 121%; in experiment [5], 99%; in [6], 131%.
Regarding `Cc1sc2c(c1C)C(c1ccc(Cl)cc1)=N[C@@H](CC(=O)NCCCCNC(=O)c1ccc(COc3cccc4c3CN(C3CCC(=O)NC3=O)C4=O)cc1)c1nnc(C)n1-2` (stereo partly specified), the IC50 in the experiment on MM1.S was 139 nM; with MV4-11 it was 10 nM. For the same molecule, the Activity in [7] was 98%; in experiment [8] it was 59%; in experiment [9], 93%; in experiment [10], 126%; in experiment [11] it was 102%; in experiment [12], 95%.
